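Protocol summary: plate cells (96-well), add compound at 5 concentrations, incubate 48 h, interpolate endpoints linearly. At the GI50, growth is halved. Definition used: TGI = concentration required for complete inhibition of growth.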

Common to all, as to assay: NCI tumour cell line growth inhibition, 48 h
The subject of assay [1] is BT-549 breast.
For assay [2], the system named is UACC-62 melanoma.
The test system of assay [3] is SK-MEL-5 melanoma.
The test system of assay [4] is SF-539 CNS.
Assay [5] deals with MDA-MB-435.
In assay [6] the test system is OVCAR-5 ovarian.
Assay [7] has as its system SNB-19 CNS.
Assay [8] relates to NCI-H460 lung.
In assay [9] the test system is NCI/ADR-RES ovarian.
The test system of assay [10] is SK-OV-3 ovarian.
The test system of assay [11] is HT29 colon.
In assay [12] the test system is RPMI-8226 leukemia.
For assay [13], the system named is T-47D breast.
For assay [14], the system named is SF-268 CNS.
Assay [15] concerns MDA-MB-231 breast.
Assay [16] deals with UO-31 renal.

For `CC1(C)OCC2(CO1)CSCCCSCC1(COC(C)(C)OC1)CSCCCSC2`, the TGI in [1], in [2], in assay [3], in [4], in [5] and in assay [6] was above 100 µM in each case. For the same compound, the TGI in assay [7], in assay [8], in assay [9], in [10], in [11] and in assay [12] was above 100 µM in each case. Further, the TGI in assay [13], in assay [14], in assay [15] and in [16] was above 100 µM throughout.

Turning to `Cc1cccc2[nH]c3cc(O)cc(O)c3c(=O)c12`, the TGI in [1], in assay [2], in assay [3], in assay [4], in assay [5] and in assay [6] was above 10 µM in each case. Also, the TGI in assay [7], in [8], in assay [9], in [10], in assay [11] and in assay [12] was above 10 µM in each case. For the same compound, the TGI in assay [13], in [14], in [15] and in [16] was above 10 µM each time.

`Nc1nc(Cl)c(N)c(NCC2(CO)CC(Cc3ccccc3)C2)n1` (stereo not drawn): the TGI in assay [1] was above 100 µM; in assay [2], above 100 µM; in [3], 18.5 µM; in assay [4], above 100 µM; in [5] it was 60 µM; in [6], above 100 µM. For the same compound, the TGI in assay [7] is above 100 µM; in assay [8], above 100 µM; in [9] it was above 100 µM; in assay [10], above 100 µM; in assay [11], above 100 µM; in assay [12], above 78.8 µM. For the same compound, the TGI in assay [13], in assay [14], in [15] and in assay [16] was above 100 µM throughout.

For `COC(=O)Nc1nc2ccc(Oc3ccc4nc(NC(=O)OC)[nH]c4c3)cc2[nH]1`, the TGI in [1] is above 100 µM; in [2] it was above 100 µM; in assay [3], 4.19 µM; in [4], 1.69 µM; in assay [5] it was 0.166 µM; in assay [6], above 100 µM. The TGI was above 100 µM in [7]; above 100 µM in assay [8]; above 100 µM in assay [9]; above 100 µM in assay [10]; above 100 µM in assay [11]; above 26.7 µM in assay [12]. The TGI in assay [13] is above 100 µM; in assay [15] it was 11 µM; in assay [16], above 100 µM.

Turning to `O=C(c1ccco1)C1CC(c2ccc3ccccc3c2O)=NN1` (stereo not drawn), the TGI in assay [1], in assay [2], in assay [3], in assay [4], in assay [5] and in assay [6] was above 100 µM in each case. In addition, the TGI in [8], in [9], in [10], in [11], in assay [12] and in [13] was above 100 µM in each case. Moreover, the TGI in assay [14], in assay [15] and in [16] was above 100 µM in each case.

For `COc1cc(O)c2c(=O)c(OC)c(-c3ccc4c(c3)OCO4)oc2c1`, the TGI in assay [1] was above 30 µM; in assay [2] it was above 100 µM; in assay [3], 98.1 µM; in assay [4], above 74.9 µM; in assay [5], above 100 µM; in assay [6], above 100 µM. The TGI is above 84.1 µM in assay [7]; above 100 µM in [8]; above 100 µM in [9]; 81 µM in assay [10]; above 100 µM in [11]; above 100 µM in assay [12]. The TGI in assay [13] is above 100 µM; in assay [14], 40 µM; in assay [15] it was above 77.4 µM; in [16] it was above 100 µM.

Consider `O=C1NCN(c2ccccc2)C12CCN(CCc1ccc3[nH]c(=S)[nH]c3c1)CC2`, for which the TGI in assay [1] is above 100 µM; in [2] it was above 100 µM; in assay [3], 31.7 µM; in [4], 58.4 µM; in assay [5] it was 35.6 µM; in assay [6], above 100 µM. Besides, the TGI in assay [7] is above 100 µM; in [8], above 100 µM; in assay [9], above 100 µM; in [10], above 100 µM; in assay [11], above 100 µM; in [12], 59.3 µM. Also, the values for the TGI in [13], in assay [14] and in [15] were 56.8 µM, above 100 µM and 41.6 µM, respectively.

As for `CCOc1cc(-c2nc3ccccn3c2/N=C/c2cc([N+](=O)[O-])cc([N+](=O)[O-])c2O)ccc1O`, the TGI in assay [1], in assay [2], in assay [3], in [4], in [5] and in assay [6] was above 100 µM in each case. The TGI in assay [7], in assay [8], in assay [9], in [10], in assay [11] and in assay [12] was above 100 µM throughout. Also, the TGI in assay [13], in assay [14], in assay [15] and in assay [16] was above 100 µM each time.

For the compound `CSc1c(C#N)c(O)n(-c2ccc(C)cc2)c(=O)c1C#N`, the TGI in assay [1], in assay [2], in [3], in assay [4], in [5] and in assay [6] was above 100 µM in each case. Besides, the TGI in assay [7], in assay [8], in assay [9], in assay [10], in assay [11] and in assay [12] was above 100 µM in each case. The TGI in [13], in assay [14], in assay [15] and in [16] was above 100 µM in each case.

As for `Cc1c(/C=N/NC(=S)Nc2cccc(Cl)c2)c(=O)n(-c2ccccc2)n1C`, the TGI in assay [1] was 75.1 µM; in assay [2], above 100 µM; in assay [3] it was above 100 µM; in assay [4], 33 µM; in assay [5], above 100 µM; in assay [7] it was 37.1 µM. Moreover, the TGI was 21.8 µM in assay [8]; 33.8 µM in assay [9]; 38.2 µM in [10]; above 100 µM in assay [11]; above 100 µM in assay [12]; above 100 µM in assay [13]. For the same compound, the TGI came to 36.7 µM in [14], 43.8 µM in assay [15] and 88.7 µM in [16].

Turning to `CCOC(=O)N1CCN(c2c(C)nc(C)[nH]c2=O)CC1`, the TGI in assay [1], in [2], in [3], in assay [4], in [5] and in [7] was above 100 µM each time. Besides, the TGI in [8], in assay [9], in assay [10], in assay [11], in assay [12] and in assay [13] was above 100 µM throughout. For the same compound, the TGI in [14], in [15] and in assay [16] was above 100 µM in each case.

Take `OC(CC(CC(O)(C(F)(F)Cl)C(F)(F)Cl)=NNc1ccccc1)(C(F)(F)Cl)C(F)(F)Cl`: the TGI was 5.69 µM in assay [1]; 4.95 µM in assay [2]; 3.45 µM in assay [3]; 8.75 µM in assay [4]; above 10 µM in assay [5]; above 10 µM in [6]. Also, the TGI was above 10 µM in assay [7]; 7.85 µM in assay [8]; 8.62 µM in assay [9]; above 10 µM in assay [10]; above 10 µM in [11]; above 10 µM in assay [12]. Also, the TGI worked out at 9.42 µM in assay [13], 7.44 µM in assay [14] and 6.63 µM in [15].

Turning to `[N-]=[N+]=Nc1ccc(NCCCCCC(=O)ON2C(=O)CCC2=O)c([N+](=O)[O-])c1`, the TGI in assay [1], in [2], in assay [3], in [4], in assay [5] and in assay [6] was above 100 µM each time. Moreover, the TGI in assay [7], in [8], in assay [9], in assay [10], in assay [11] and in assay [13] was above 100 µM in each case. The TGI in assay [14], in assay [15] and in assay [16] was above 100 µM throughout.

`COC(=O)c1ccccc1/C=C1/Cc2cccc(C)c2C1=O`: the TGI in [1], in assay [2], in [3], in assay [4], in assay [5] and in assay [6] was above 100 µM throughout. Also, the TGI in assay [8], in [9], in assay [10], in [11], in assay [12] and in [13] was above 100 µM throughout. Also, the TGI in assay [14], in [15] and in assay [16] was above 100 µM each time.

`COc1ccc(C2=C(Cl)c3cc(OC)c(OC)cc3C2=O)cc1OC`: the TGI in assay [1] was determined as 29.5 µM; in assay [2], 29.6 µM; in [3] it was 31.7 µM; in [4], 35.9 µM; in assay [5] it was 29.4 µM; in assay [6], 33.9 µM. For the same compound, the TGI is above 100 µM in assay [7]; 51.5 µM in assay [9]; 36.9 µM in [10]; above 100 µM in assay [11]; 87.1 µM in assay [12]; 10.9 µM in assay [13]. The TGI came to 35.9 µM in assay [14], 36.5 µM in [15] and 30.2 µM in [16].

`CC1=C(C(=O)N[C@@H](Cc2ccccc2)C(=O)O)N2C(=O)[C@@H](NC(=O)[C@@H](N)CC(C)C)[C@H]2SC1`: the TGI in assay [1], in assay [2], in assay [3], in assay [4], in assay [5] and in assay [6] was above 100 µM each time. The TGI in assay [7], in [8], in assay [9], in assay [12], in assay [13] and in [14] was above 100 µM throughout. Further, in assay [15], the TGI is above 100 µM.

As to `COC(=O)c1ccc(Oc2nc3ccccc3nc2-c2cccs2)cc1`, the TGI in [1], in [2], in assay [3], in assay [4], in assay [5] and in [6] was above 100 µM throughout. Also, the TGI in [7] was 86.1 µM; in [8] it was above 100 µM; in assay [9], above 100 µM; in assay [10], above 100 µM; in assay [11] it was above 100 µM; in [13], above 100 µM. Besides, the TGI in assay [14] was 66 µM; in [15] it was 57.8 µM; in [16], above 100 µM.

Take `FC(F)(F)c1nc2ccc(SSc3ccc4nc(C(F)(F)F)[nH]c4c3)cc2[nH]1`: the TGI in assay [1], in assay [2], in [3], in [4], in assay [5] and in assay [6] was above 100 µM each time. In addition, the TGI in assay [7] is above 100 µM; in assay [8], 75.1 µM; in [9], above 100 µM; in [11], above 100 µM; in assay [12], 65 µM; in [13] it was above 100 µM. The TGI in [14] is above 100 µM; in assay [15], 71.3 µM; in assay [16], above 100 µM. For the same compound, the GI50 in assay [7], in assay [9], in assay [11] and in [14] was above 100 µM throughout.
